This note sets out measurements from ChEMBL document CHEMBL1156016, “Discovery of potent and selective histone deacetylase inhibitors via focused combinatorial libraries of cyclic alpha3beta-tetrapeptides” (J Med Chem, 2009).

Square brackets hold non-standard residues; d marks the D form. Peptide text beside a SMILES is read from it. * marks the point of attachment. Phe(F5) = N[C@@H](Cc1c(F)c(F)c(F)c(F)c1F)C(=O)O; β3hW = N[C@H](CC(=O)O)Cc1c[nH]c2ccccc12; 1Nal = N[C@@H](Cc1cccc2ccccc12)C(=O)O; β3hY = N[C@H](CC(=O)O)Cc1ccc(O)cc1; Asu = N[C@@H](CCCCCC(=O)O)C(=O)O; β3hL = CC(C)C[C@H](N)CC(=O)O; Carboxymethyl = O=C(O)C*; CH2CH2COOH = O=C(O)CC*; Aib = CC(C)(N)C(=O)O; X1 = CCC(=O)CC*; NHOH = ON*

One experiment has as its target T1, Histone deacetylase 8 (Homo sapiens, UniProt Q9BY41).
T1 sequence (Q9BY41 whole entry): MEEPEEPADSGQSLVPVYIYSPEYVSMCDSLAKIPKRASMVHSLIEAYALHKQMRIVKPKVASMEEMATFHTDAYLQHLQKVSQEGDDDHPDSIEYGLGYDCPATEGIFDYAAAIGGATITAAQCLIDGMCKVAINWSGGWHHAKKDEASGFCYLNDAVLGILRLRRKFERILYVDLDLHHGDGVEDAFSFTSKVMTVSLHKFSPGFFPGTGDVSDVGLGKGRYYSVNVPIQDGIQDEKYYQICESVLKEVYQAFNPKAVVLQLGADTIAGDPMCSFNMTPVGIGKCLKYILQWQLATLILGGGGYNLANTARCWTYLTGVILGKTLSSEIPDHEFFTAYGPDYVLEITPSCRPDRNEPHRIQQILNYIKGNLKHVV

The next experiment has as its target Histone deacetylase 3 (Homo sapiens, UniProt O15379).
The target in experiment [1] is T2, Protein deacetylase HDAC6 (Homo sapiens, UniProt Q9UBN7).
T2 sequence (Q9UBN7 whole entry): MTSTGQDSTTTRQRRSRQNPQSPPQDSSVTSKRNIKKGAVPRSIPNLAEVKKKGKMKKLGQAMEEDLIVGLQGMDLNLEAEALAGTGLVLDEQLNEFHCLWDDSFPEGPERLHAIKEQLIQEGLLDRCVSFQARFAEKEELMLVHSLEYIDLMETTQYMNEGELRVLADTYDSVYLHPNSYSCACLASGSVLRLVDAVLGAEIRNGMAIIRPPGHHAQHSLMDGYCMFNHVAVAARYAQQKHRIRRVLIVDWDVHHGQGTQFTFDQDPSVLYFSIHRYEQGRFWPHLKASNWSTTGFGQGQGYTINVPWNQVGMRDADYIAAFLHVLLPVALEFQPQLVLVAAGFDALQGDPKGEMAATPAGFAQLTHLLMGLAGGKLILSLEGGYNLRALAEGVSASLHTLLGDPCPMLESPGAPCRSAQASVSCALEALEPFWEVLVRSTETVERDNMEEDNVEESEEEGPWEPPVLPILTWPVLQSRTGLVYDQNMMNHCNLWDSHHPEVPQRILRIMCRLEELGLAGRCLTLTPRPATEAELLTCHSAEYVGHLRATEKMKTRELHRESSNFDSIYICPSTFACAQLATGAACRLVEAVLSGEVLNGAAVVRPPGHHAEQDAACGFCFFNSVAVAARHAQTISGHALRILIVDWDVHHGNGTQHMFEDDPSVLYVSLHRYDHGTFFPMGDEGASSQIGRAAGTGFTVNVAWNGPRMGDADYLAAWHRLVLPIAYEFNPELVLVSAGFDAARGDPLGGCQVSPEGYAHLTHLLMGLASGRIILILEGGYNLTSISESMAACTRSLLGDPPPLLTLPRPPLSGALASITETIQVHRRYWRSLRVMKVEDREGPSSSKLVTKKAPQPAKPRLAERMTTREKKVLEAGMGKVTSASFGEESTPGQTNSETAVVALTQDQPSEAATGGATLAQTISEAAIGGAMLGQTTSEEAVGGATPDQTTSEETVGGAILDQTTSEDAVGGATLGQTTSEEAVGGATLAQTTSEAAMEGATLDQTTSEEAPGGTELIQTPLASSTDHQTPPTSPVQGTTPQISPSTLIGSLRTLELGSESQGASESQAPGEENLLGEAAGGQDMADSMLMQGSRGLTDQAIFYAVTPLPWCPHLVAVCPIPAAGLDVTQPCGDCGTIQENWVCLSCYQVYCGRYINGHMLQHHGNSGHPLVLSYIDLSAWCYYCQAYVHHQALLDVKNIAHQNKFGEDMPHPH
Description: Inhibition of human recombinant HDAC6 after 30 mins by fluorimetric assay

A further experiment concerns the target Histone deacetylase 1 (Homo sapiens, UniProt Q13547).
In a further experiment the test system is Jurkat. The experiment is described as follows: cells. The settings on record: Homo sapiens, 72 h.
The target of the next experiment is Histone deacetylase. It is filed as cell-based, Homo sapiens. The settings on record: hela.

Chain of Histone deacetylase 3 (O15379 whole entry): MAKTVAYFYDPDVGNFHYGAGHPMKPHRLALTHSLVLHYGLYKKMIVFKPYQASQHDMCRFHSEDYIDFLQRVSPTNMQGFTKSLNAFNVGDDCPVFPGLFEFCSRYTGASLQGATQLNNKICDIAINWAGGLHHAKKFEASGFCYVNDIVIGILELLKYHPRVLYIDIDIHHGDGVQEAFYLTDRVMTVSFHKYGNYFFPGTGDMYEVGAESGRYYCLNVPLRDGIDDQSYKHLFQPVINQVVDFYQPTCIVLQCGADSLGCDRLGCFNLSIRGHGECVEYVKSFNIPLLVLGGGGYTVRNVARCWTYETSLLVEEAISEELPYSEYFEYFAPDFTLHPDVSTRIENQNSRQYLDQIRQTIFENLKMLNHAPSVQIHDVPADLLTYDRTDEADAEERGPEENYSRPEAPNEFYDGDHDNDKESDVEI
Chain of Histone deacetylase 1 (Q13547 whole entry): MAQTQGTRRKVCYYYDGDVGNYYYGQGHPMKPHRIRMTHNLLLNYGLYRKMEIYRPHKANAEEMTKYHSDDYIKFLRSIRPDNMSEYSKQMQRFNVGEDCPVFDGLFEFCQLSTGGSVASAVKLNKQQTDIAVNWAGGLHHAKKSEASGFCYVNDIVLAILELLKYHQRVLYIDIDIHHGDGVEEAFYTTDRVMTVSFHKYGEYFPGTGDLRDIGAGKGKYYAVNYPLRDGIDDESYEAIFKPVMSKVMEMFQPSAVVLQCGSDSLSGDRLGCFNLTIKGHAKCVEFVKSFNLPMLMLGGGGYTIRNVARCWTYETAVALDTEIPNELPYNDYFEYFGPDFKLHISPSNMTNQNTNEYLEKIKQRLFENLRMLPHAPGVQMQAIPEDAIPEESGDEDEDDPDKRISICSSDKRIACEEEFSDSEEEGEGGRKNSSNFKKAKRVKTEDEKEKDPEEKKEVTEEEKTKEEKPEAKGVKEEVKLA
Description for Histone deacetylase 1: Inhibition of human recombinant HDAC1 after 30 mins by fluorimetric assay
Description for Histone deacetylase 3: Inhibition of human recombinant HDAC3 after 30 mins by fluorimetric assay
Description for Histone deacetylase 8: Inhibition of human recombinant HDAC8 after 30 mins by fluorimetric assay

With `CCC(=O)CCCCC[C@@H]1NC(=O)C[C@H](CC(C)C)NC(=O)[C@H](Cc2c[nH]c3ccccc23)NC(=O)[C@H](CCCCCC(=O)CC)NC1=O`, the IC50 on Histone deacetylase 8 is 1.4 µM; on Histone deacetylase 3, 0.26 µM; in experiment [1], > 10 µM; against Histone deacetylase 1 it was 0.15 µM.
The compound `CC(C)C[C@H]1CC(=O)N[C@@H](C)C(=O)N[C@@H](CCCCCC(=O)NO)C(=O)N[C@@H](Cc2c[nH]c3ccccc23)C(=O)N1` (cyclo([Asu](NHOH)W[β3hL]A)) displayed a concentration for 50% growth inhibition (GI50) in the experiment on Jurkat of 1.7 µM.
`CC(=O)NCCCC[C@@H]1NC(=O)C[C@H](Cc2ccc(O)cc2)NC(=O)[C@H](Cc2cccc3ccccc23)NC(=O)[C@H](CCCCCC(=O)O)NC1=O` (cyclo([1Nal][β3hY]K(Ac)[Asu])): the midpoint of inhibition in experiment [1], the IC50, lay at 4.4 µM.
Compound `CC(C)C[C@H]1CC(=O)NC(C)(C)C(=O)N[C@@H](CCCCCC(=O)O)C(=O)N[C@@H](Cc2cccc3ccccc23)C(=O)N1` (cyclo([1Nal][β3hL][Aib][Asu])) came in with an IC50 against Histone deacetylase 8 of 0.87 µM. This counts as sub-micromolar.
For `N=C(N)NCCC[C@@H]1NC(=O)C[C@H](Cc2ccc(O)cc2)NC(=O)[C@H](Cc2cccc3ccccc23)NC(=O)[C@H](CCCCCC(=O)O)NC1=O` (cyclo([Asu][1Nal][β3hY]R)), the midpoint of inhibition against Histone deacetylase 8, the IC50, lay at 1.4 µM. Against the preceding compound, the IC50 is about 1.6-fold higher.
As to `CC(=O)NCCCC[C@@H]1NC(=O)C[C@H](CC(C)C)NC(=O)[C@H](Cc2c[nH]c3ccccc23)NC(=O)[C@H](CSCCC(=O)O)NC1=O` (cyclo(C(CH2CH2COOH)W[β3hL]K(Ac))), the IC50 against Histone deacetylase 8 was 7.04 µM; against Histone deacetylase 3, > 10 µM; in experiment [1], > 10 µM.
As to `CC(C)C[C@H]1CC(=O)N[C@@H](CCCNC(=N)N)C(=O)N[C@@H](CCCCCC(=O)O)C(=O)N[C@@H](Cc2cccc3ccccc23)C(=O)N1` (cyclo([Asu][1Nal][β3hL]R)), the half-maximal inhibitory concentration (IC50) was found to be 0.607 µM against Histone deacetylase 8, 0.262 µM at Histone deacetylase 3, 1.4 µM in experiment [1] and 0.178 µM against Histone deacetylase 1.
For `O=C(O)CCCCC[C@@H]1NC(=O)[C@H](Cc2c(F)c(F)c(F)c(F)c2F)NC(=O)C[C@H](Cc2ccc(O)cc2)NC(=O)[C@H](Cc2cccc3ccccc23)NC1=O` (cyclo([1Nal][β3hY][Phe(F5)][Asu])), the values for the IC50 (against Histone deacetylase 8; in experiment [1]; against Histone deacetylase 1) were 6.7 µM, > 10 µM and 1 µM, respectively.
For `CCC(=O)CCSC[C@@H]1NC(=O)[C@H](C)NC(=O)C[C@H](CC(C)C)NC(=O)[C@H](Cc2c[nH]c3ccccc23)NC1=O` (cyclo(AC(X1)W[β3hL])), the IC50 (on Histone deacetylase 8; against Histone deacetylase 3; in experiment [1]; at Histone deacetylase 1) was > 10 µM in each case.
As for `CC(C)C[C@H]1CC(=O)N[C@@H](C)C(=O)N[C@@H](CSCC(=O)O)C(=O)N[C@@H](Cc2c[nH]c3ccccc23)C(=O)N1` (cyclo(C(Carboxymethyl)W[β3hL]A)), the concentration for half-maximal inhibition (IC50) was 9.7 µM against Histone deacetylase 8, > 10 µM at Histone deacetylase 3, > 10 µM in experiment [1] and > 10 µM on Histone deacetylase 1.
At Histone deacetylase, `CC(C)C[C@H]1CC(=O)N[C@@H](C)C(=O)N[C@@H](CCCCCC(=O)O)C(=O)N[C@@H](Cc2ccccc2)C(=O)N1` (cyclo(A[Asu]F[β3hL])) registered a half-inhibitory concentration (IC50) of 0.541 µM.
The same measure, in the same setting: under `O=C(O)CCCCC[C@@H]1NC(=O)[C@H]2CCCCN2C(=O)C[C@H](Cc2ccccc2)NC(=O)[C@H](Cc2c[nH]c3ccccc23)NC1=O` stands 0.791 µM.
For the compound `CC(C)C[C@H]1CC(=O)N[C@@H](C)C(=O)N[C@@H](CSCCC(=O)O)C(=O)N[C@@H](Cc2c[nH]c3ccccc23)C(=O)N1` (cyclo(C(CH2CH2COOH)W[β3hL]A)), the IC50 at Histone deacetylase 8 was 6.05 µM; against Histone deacetylase 3, 7.08 µM; in experiment [1], > 10 µM; against Histone deacetylase 1 it was 4.84 µM.
In the case of `CC1(C)NC(=O)C[C@H](Cc2c[nH]c3ccccc23)NC(=O)[C@H](Cc2cccc3ccccc23)NC(=O)[C@H](CCCCCC(=O)O)NC1=O` (cyclo([1Nal][β3hW][Aib][Asu])), half-maximal inhibition in experiment [1] (IC50) required 3.7 µM.

The IC50 is the concentration at which inhibition is half-maximal. Low readings indicate greater potency in that assay, high ones weaker potency in that assay. A word on the GI50: it is the concentration giving 50% growth inhibition. Low values mean more potent growth inhibition, high ones less potent growth inhibition.
